Here are results for 10 compounds from ChEMBL document CHEMBL1201862, “PubChem BioAssay data set” (2004).

A short description of test [1]: off-target signal loss in HeLa-CEM21 co-culture – HeLa F-luc CTL cells, cherry-picked, counter-screen for HIV-1 Env fusion inhibitor project, dose response (AID 652040).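 Further: potency for signal decrease marking cytotoxic or nonspecific inhibition.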 Type of test: functional, cell-based. For orientation: The purpose of a counterscreen is to sort out artefacts and off-target activity.
Test [2] can be described thus: SNU-C1 cell viability reduction, dose response, CellTiter-Glo luminescence (AID 1117323). Type of test: functional, cell-based. On the technique in general: ATP-based viability assays read luminescence as a measure of living cells.
The nature of test [3]: cytotoxicity toward HCT116 cells – cell-based, CellTiter-Glo luminescence, IC50, dose response (AID 1117332). Type of test: functional. The note with it: HCT-116.
Test [4] can be described thus: cytotoxicity toward HT-29 cells – cell-based, CellTiter-Glo luminescence, IC50, dose response (AID 1117330). Type of test: functional.
A short description of test [5]: cytotoxicity toward Colo320 cells – cell-based, CellTiter-Glo luminescence, IC50, dose response (AID 1117334). Type of test: functional. Conditions: COLO 320.
A short description of test [6]: cytotoxicity toward DRD oncogenic fibroblasts, dose response, cell-based, non-viral oncogenic, luminescence (AID 1934). Type of test: functional. The note with it: Homo sapiens.
Test [7] in a line: HeLa 2N DNA content increase, dose response, cell-based, IC50 (AID 1117349). Type of test: functional.
Another test concerns P388/ADR. The test is described as follows: cells. The class given is functional. Conditions: Mus musculus.
A short description of test [8]: HeLa 4N DNA content increase, dose response, cell-based, IC50 (AID 1117351). The class given is functional.
The subject of a further test is Streptococcus. Description: Group A Streptococcus viability loss, dose response, counter-screen for streptokinase expression inhibitor project, luminescence, BacTiterGlo (AID 1915).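 Further: potency for reduction of bacterial viability or growth.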 Type of test: functional, organism-based.
Test [9] deals with BJ. Description: cells. Type of test: functional, cell-based. Conditions: Homo sapiens.
For test [10], the system named is Streptococcus sp. 'group A'. The test is described as follows: growth inhibition of control SK(-) GAS strain, dose response, counter-screen for streptokinase expression inhibitor project, luminescence, kanamycin, BacTiterGlo, confirmation (AID 1900). Type of test: functional, organism-based.
The subject of another test is SN12K1. The test is described as follows: cells. Type of test: functional. The note with it: Homo sapiens.
The nature of test [11]: Concentration-dependent survival of SW480 colon cancer line, luminescence detection with CellTiter-Glo, half-maximal inhibitory concentration (AID 1117338). Type of test: functional.
In test [12] the test system is BJ. The test is described as follows: cytotoxicity toward BJ-TERT-LT-ST fibroblasts, dose response, cell-based, RAS-independent, luminescence (AID 1935).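 Further: BJ fibroblasts immortalized with TERT plus LT and ST oncogenes.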 The class given is functional. The note with it: Homo sapiens.
For the next test, the system named is P388. The test is described as follows: cells. Conditions: Mus musculus. Type of test: functional.
The nature of test [13]: HCT116 cell viability decrease, GSK3B pretreatment – CellTiter-Glo, IC50, dose response (AID 1117339). The class given is functional. Conditions: HCT-116.
In test [14] the test system is BJ. The test is described as follows: cytotoxicity toward BJ-TERT fibroblasts, dose response, cell-based, RAS-independent, luminescence (AID 1933). The note with it: Homo sapiens. Type of test: functional.
A further test deals with HEK293. The test is described as follows: inhibitors of LMP1-driven NF-kB reporter, dose response, cell-based, HEK293, luciferase, cherry-pick (AID 588343). Conditions: Homo sapiens. Type of test: functional.
The nature of test [15]: RKO cell viability reduction, dose response, CellTiter-Glo luminescence (AID 1117322). The class given is functional.
The nature of test [16]: CellTiter-Glo luminescent dose response of DLD-1 viability loss (AID 1117352). The class given is functional.
In test [17] the target is T1, G-protein coupled receptor 183 (Homo sapiens, UniProt P32249). Description: SAR confirmation of small molecule antagonists of the EBI2 receptor via a luminescent beta-arrestin assa. The class given is functional.
The target of the next test is Beta-galactosidase (Escherichia coli, UniProt Q8VNN2). The test is described as follows: Dose response counterscreen for EBI2 assay utilizing the enzyme, b-galactosidase. Type of test: functional.
Test [18] concerns the target T1, G-protein coupled receptor 183. The test is described as follows: Dose-response confirmation of small molecule antagonists of the EBI2 receptor via a luminescent beta-arrestin assay. The class given is functional.
The nature of test [19]: inhibitors of PGC1a acetylation in cells, dose response, cell-based, cherry-picked samples (AID 720514).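 Further: potency may reflect raised or lowered acetylation signal.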 Type of test: functional.
In test [20] the target is T2, Bcl-2-related protein A1 (Mus musculus, UniProt Q07440).
T2 sequence (Q07440 whole entry): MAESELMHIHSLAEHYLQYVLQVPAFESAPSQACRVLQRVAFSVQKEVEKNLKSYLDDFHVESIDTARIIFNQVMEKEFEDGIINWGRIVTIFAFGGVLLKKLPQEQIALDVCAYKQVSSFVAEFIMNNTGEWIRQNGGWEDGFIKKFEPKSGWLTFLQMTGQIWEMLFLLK
The test is described as follows: Bfl-1 inhibitors, primary screen, biochemical, fluorescence polarization, FITC-Bid, mouse (AID 432). In general terms: In fluorescence polarisation assays a small probe gives low polarisation when free and higher when bound to something large.

Test [21] deals with T2, Bcl-2-related protein A1. Description: Bfl-1 inhibitors blocking BH3 peptide binding, confirmation, biochemical, TR-FRET, mouse Bfl-1 (AID 621).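 Further: TR-FRET binding of GST-Bfl-1 to FITC-labelled Bid peptide via terbium antibody.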
The next test has as its target Cytochrome P450 2D6 (Homo sapiens, UniProt P10635).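 Further: CYP2D6 member of a cytochrome P450 panel assay.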
For another test, the target named is Ephrin type-A receptor 4 (Mus musculus, UniProt Q03137). The test is described as follows: inhibitors of EphA4 binding to KYL peptide, primary screen, biochemical, colorimetric, mouse EphA4 (AID 689). The class given is functional.
The target of a further test is Troponin, cardiac muscle (Homo sapiens, UniProt P19429+P45379+P63316). Description: Fluorescence-based biochemical high throughput dose response assay for activators of the calcium sensitivity of cardiac Regulated Thin Filaments (RTF). [Related pubchem assays (depositor defined):AID493008, AID493018, AID504382, AID504383]. Type of test: protein-complex assay.
Test [22] deals with T3, Fibrinogen beta chain (Homo sapiens, UniProt P02675). Description: Fluorescence polarization-based biochemical high throughput dose response assay to identify inhibitors that disrupt the binding of a cyclic peptide (Tn7) to the fibrin proteolytic product D-Dimer and fragment E complex [DD(E )].
Test [23] has as its target T3, Fibrinogen beta chain. The test is described as follows: Fluorescence polarization-based biochemical high throughput dose response assay to identify inhibitors that disrupt the binding of a cyclic peptide (Tn6) to the fibrin proteolytic product D-Dimer and fragment E complex [DD(E )].
For test [24], the target named is E3 ubiquitin-protein ligase Mdm2 (Homo sapiens, UniProt Q00987). Description: enhancers of MDM2-luciferase reporter signal, concentration-effect titration, project on inhibitors of MDM2 ubiquitin ligase, cellular assay, luminescent readout, 384-well plate format (AID 1394).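 Further: MDM2 E3 inhibitors raise luminescence so EC50 is for signal enhancement.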 The class given is functional.
A short description of test [25]: P. falciparum Dd2 growth inhibitors, dose response, SYBR Green, dry powder samples (AID 1159566).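 Further: potency for growth inhibition with lower SYBR green DNA signal.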 Type of test: functional, cell-based.
Test [26] can be described thus: P. falciparum Dd2 growth inhibitors, dose response, SYBR Green, cherry-picked samples (AID 1159567). Type of test: functional, cell-based.
A short description of test [27]: Plasmodium falciparum Dd2 Sybr green parasite growth Measured in Cell-Based and Microorganism Combination System Using Plate Reader - 2153-01_Inhibitor_Dose_DryPowder_Activity_Set3. The class given is functional.
Test [28] in a line: P. falciparum ATP4 D1247Y mutant growth inhibitors, dose response, NITD609-resistant line, SYBR Green, dry powder (AID 1159571).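 Further: parasites synchronized at ring stage by sorbitol before testing.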 Type of test: functional, cell-based.
Test [29] in a line: HepG2 cell cytotoxicity, dose response, cytotoxicity control, plate reader, dry powder samples (AID 1159569).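 Further: inhibitor potency with signal falling toward the positive control level.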 The class given is functional, cell-based.
Test [30] in a line: P. falciparum 3D7-ScDHODH growth inhibitors, dose response, SYBR Green, dry powder samples (AID 1159570).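 Further: parasite growth measured after 72 hours of compound exposure.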 The class given is functional, cell-based.
Test [31] can be described thus: P. falciparum Dd2 blood-stage growth inhibition, dose response, SYBR Green fluorescence, erythrocytes, dry powder, set 2 (AID 1159574). The class given is functional, cell-based.
Test [32] can be described thus: half-maximal inhibitory concentration for glucagon-like peptide-1 release, STC-1 cell line, dose-response (AID 1117345). Type of test: functional, cell-based.
Test [33] in a line: Dose-response inhibition of insulin secretion in a rat insulinoma line at 5 mM glucose (AID 1117331). The class given is functional, cell-based. The note with it: INS-1E.
Test [34] in a line: Glucagon-like peptide 1 release potency, NCI-H716 cell line, dose-response, half-maximal inhibitory concentration (AID 1117344). The class given is functional, cell-based.
Test [35] in a line: HEK293 cell cytotoxicity, dose response, cytotoxicity control, luminescence, dry powder, set 12 (AID 743354). The class given is functional, cell-based.
A short description of test [36]: Mtb BioA inhibitors by displacement, dose response, biochemical, coupled fluorescence displacement, 20-point, dry powder (AID 743357). The class given is functional.

As a reminder, the AC50 is the concentration giving half of the maximal activity seen. As usually defined, the IC50 is the midpoint of a concentration-inhibition curve. The term EC50 denotes the midpoint of the concentration-response curve. The GI50 is the concentration at which growth is held to half of that of the control.

Structures are written as SMILES. Activity calls are given as the source filed them.

T1 sequence (P32249 whole entry): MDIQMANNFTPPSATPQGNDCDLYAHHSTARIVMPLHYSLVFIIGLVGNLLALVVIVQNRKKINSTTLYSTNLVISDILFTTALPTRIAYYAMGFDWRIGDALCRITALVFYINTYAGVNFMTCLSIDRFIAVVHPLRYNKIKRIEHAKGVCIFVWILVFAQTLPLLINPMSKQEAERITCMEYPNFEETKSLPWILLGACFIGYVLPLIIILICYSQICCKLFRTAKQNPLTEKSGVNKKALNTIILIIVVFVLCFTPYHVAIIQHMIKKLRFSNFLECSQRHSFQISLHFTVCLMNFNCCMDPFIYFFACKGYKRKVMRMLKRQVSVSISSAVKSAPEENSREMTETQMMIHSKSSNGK
T3 sequence (P02675 whole entry, the tested form may be a part): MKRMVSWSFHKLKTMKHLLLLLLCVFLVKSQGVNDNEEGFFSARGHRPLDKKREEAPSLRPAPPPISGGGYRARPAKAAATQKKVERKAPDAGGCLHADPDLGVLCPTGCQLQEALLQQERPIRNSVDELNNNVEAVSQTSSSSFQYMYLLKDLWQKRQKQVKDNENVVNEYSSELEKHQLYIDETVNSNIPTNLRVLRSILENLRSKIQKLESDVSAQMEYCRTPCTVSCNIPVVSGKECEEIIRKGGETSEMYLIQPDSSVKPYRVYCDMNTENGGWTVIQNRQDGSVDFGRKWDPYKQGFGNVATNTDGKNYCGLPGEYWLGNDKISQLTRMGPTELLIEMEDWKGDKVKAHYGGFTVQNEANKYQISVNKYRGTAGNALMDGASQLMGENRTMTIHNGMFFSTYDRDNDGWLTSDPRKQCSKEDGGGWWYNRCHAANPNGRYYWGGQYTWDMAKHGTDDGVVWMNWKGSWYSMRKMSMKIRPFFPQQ
Sequence of Cytochrome P450 2D6 (P10635 whole entry): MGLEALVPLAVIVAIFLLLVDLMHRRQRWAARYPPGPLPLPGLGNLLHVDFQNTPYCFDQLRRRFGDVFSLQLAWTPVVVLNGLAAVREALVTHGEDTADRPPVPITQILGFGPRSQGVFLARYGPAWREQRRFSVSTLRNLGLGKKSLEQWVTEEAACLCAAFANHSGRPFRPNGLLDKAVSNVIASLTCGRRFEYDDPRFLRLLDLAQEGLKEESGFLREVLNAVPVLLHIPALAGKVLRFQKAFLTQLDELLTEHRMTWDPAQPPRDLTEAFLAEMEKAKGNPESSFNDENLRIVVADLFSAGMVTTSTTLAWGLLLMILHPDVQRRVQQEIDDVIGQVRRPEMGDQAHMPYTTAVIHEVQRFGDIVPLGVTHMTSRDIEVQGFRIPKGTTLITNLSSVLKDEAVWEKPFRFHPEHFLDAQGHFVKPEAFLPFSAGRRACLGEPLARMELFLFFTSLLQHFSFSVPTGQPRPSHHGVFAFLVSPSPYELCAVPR
Sequence of E3 ubiquitin-protein ligase Mdm2 (Q00987 whole entry): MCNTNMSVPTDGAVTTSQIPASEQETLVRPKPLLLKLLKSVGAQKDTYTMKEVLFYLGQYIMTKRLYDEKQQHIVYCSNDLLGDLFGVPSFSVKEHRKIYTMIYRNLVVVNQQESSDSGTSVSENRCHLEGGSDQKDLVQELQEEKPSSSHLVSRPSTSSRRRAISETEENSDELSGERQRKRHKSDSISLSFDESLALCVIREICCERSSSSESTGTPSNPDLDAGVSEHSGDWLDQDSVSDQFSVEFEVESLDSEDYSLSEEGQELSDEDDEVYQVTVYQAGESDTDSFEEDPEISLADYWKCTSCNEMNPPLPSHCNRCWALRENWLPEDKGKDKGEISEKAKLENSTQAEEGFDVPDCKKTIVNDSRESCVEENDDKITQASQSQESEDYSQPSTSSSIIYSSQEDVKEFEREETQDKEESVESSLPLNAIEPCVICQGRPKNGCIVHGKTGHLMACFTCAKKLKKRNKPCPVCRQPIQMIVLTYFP
Sequence of Ephrin type-A receptor 4 (Q03137 whole entry): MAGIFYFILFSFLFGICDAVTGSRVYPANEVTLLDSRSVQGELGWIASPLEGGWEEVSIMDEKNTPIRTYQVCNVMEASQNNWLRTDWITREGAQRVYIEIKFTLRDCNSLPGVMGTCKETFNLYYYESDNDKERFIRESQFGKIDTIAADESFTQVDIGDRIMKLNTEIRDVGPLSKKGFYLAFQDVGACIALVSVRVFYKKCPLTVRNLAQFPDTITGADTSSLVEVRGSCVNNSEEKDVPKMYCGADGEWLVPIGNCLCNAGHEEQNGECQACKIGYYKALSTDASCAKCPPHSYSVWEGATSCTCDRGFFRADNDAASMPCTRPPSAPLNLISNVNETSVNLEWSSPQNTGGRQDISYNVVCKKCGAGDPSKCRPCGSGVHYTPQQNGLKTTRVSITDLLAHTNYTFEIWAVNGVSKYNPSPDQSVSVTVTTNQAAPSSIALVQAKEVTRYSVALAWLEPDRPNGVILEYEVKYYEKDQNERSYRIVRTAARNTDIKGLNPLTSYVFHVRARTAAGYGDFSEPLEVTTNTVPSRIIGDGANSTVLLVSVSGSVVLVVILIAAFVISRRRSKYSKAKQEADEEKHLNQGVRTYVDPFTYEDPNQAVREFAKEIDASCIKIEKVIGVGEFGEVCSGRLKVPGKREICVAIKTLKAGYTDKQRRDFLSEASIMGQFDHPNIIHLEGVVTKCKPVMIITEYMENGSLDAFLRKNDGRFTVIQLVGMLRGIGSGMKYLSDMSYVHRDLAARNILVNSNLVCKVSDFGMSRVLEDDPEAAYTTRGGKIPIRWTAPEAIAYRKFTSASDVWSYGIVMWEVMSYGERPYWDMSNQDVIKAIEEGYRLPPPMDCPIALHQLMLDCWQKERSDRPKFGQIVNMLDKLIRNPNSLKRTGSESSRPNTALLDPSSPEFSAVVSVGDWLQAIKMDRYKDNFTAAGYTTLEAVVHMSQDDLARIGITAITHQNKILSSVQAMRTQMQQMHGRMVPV
Sequence of Beta-galactosidase (Q8VNN2 whole entry): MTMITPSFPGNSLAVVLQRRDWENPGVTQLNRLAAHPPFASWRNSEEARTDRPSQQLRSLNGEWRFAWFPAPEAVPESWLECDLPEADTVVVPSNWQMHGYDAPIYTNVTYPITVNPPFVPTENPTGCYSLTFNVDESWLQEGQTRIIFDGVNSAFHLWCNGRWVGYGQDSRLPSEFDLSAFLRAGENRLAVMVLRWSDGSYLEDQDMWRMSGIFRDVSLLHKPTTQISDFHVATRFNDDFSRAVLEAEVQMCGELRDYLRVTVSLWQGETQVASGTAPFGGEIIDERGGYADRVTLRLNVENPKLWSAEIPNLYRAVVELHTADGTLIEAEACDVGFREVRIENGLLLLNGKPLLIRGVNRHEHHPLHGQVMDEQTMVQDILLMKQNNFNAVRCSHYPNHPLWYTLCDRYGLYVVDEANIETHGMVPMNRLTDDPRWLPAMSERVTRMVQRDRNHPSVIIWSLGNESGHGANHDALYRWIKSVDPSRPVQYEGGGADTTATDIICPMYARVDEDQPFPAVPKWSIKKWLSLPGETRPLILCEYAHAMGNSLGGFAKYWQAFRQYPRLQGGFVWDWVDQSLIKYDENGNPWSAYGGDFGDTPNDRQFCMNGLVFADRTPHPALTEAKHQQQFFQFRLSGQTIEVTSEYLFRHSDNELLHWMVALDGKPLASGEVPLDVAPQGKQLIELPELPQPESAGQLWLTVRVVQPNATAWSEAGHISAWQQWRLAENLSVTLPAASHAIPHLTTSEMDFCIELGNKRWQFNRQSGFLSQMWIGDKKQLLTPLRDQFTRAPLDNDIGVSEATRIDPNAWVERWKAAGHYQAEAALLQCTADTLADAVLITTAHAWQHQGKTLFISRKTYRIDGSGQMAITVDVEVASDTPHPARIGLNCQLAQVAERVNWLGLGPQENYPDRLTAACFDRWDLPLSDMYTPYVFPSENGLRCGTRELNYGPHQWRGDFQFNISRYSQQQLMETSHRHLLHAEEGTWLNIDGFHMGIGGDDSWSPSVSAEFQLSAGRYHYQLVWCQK

Regarding `O=c1[nH]c(=O)n([C@H]2C[C@H](O)[C@@H](CO)O2)cc1F` [FLOXURIDINE], the AC50 is > 70000 nM (inactive) in test [1] and 61.9 nM (active) in the test on HEK293. The IC50 in test [2] is > 20000 nM (inactive); in [3], 1 nM (active); in test [4], > 20000 nM (inactive); in test [5], > 20000 nM (inactive); in test [7] it was > 10000 nM (inactive); in [8] it was > 10000 nM (inactive). In addition, the IC50 is > 20000 nM (inactive) in test [11], 1 nM (active) in test [13], 1 nM (active) in [15] and 1 nM (active) in [16]. Besides, the EC50 in test [6] is > 150000 nM (not active); in the test on Streptococcus, 1340 nM (active); in the test with BJ [9] it was 596 nM (active); in test [10] it was 916 nM (active); in the test with BJ [12], > 150000 nM (inconclusive); in the test on BJ [14], 57000 nM (active). Further, the GI50 in the test with P388/ADR was 250 nM (active); with SN12K1 it was 340 nM (active); in the test on P388, 250 nM (active).
In the case of `O=C(/C=C/c1ccc(F)cc1)N1CCN(S(=O)(=O)/C=C/c2ccccc2)CC1`, the IC50 in test [17] is 3.59 nM (active); on Beta-galactosidase it was > 80000 nM (inactive); in test [18], 6.75 nM (active).
Regarding `CC(=O)Nc1ccc2c(CSc3nncs3)cc(=O)oc2c1`, in test [19], the AC50 was 26500 nM (active).
As for `CCSc1nnc(NC(=O)C(C(F)(F)F)C(F)(F)F)s1`, the IC50 at Bcl-2-related protein A1 [20] was 2850 nM (active); at Bcl-2-related protein A1 [21], 2660 nM (active); on Ephrin type-A receptor 4, 4100 nM (active). The AC50 at Cytochrome P450 2D6 is 25100 nM (inconclusive).
Consider `[O-][n+]1c2c([n+]([O-])c3cc(N4CCCC4)c(F)cc31)CCC2`, for which the EC50 on Troponin, cardiac muscle is > 2650 nM (active). For the same compound, the values for the IC50 on Fibrinogen beta chain [22] and on Fibrinogen beta chain [23] were > 83300 nM (inactive) and 26100 nM (inactive), respectively.
Consider `CSc1nsc(/C=C/Nc2ccc(F)cc2)c1C#N`, for which, in test [24], the EC50 was 2400 nM (not active).
Take `CO[C@@H]1CN(C)C(=O)c2ccc(NC(=O)C3CC3)cc2OC[C@@H](C)N(Cc2cc(F)ccc2F)C[C@H]1C`: the AC50 in test [25] is 957 nM (active); in test [26] it was 1220 nM (active); in [27] it was 2080 nM (active); in test [28], 1790 nM (active); in test [29] it was 76200 nM (active); in test [30], 5770 nM (active).
`COc1ccc(NC(=O)N2CCCCN3[C@H](CO)[C@H](c4ccc(C#Cc5ccccc5)cc4)[C@@H]3C2)cc1`: the AC50 was 3.84 nM (active) in test [25]; 6.52 nM (active) in [31]; < 300 nM (active) in [26]; 3.09 nM (active) in [28]; 85100 nM (active) in test [29]; 3.46 nM (active) in test [30].
As for `NC(=O)c1cccnc1` [NIACINAMIDE], the IC50 in [32] was > 40000 nM (inactive); in test [33], > 33300 nM (inactive); in test [34] it was > 40000 nM (inactive).
On to `CN1c2ccc(-c3cccc(F)c3)cc2[C@H]2[C@H](CCN2C(=O)CCCCCCN)[C@H]1CO`, for which the AC50 in test [35] is > 52000 nM (inactive); in test [36] it was 13000 nM (active).
